Data published in patent US9328093B2, “Selective inhibitors of ubiquitin specific protease 7, the pharmaceutical compositions thereof and their therapeutic applications” (HYBRIGENICS SA, priority 2010, dated 2016).

How the values were obtained:
[1] = molecular target: T1, USP7 over a panel of active DUBs (Homo sapiens, UniProt Q93009); assay: HA-Ub-VS labeling of active DUBs in HEK293 cell lysates; format: biochemical; settings: different doses
Description: (§1) The C-terminally modified vinyl sulfone derivative of ubiquitin, UbVS, was clearly helpful for a direct visualization of active DUBs in cells. This tool, which binds covalently to the cysteine active site of deubiquitinating enzymes, was successfully applied to discover and characterize novel ubiquitin/ubiquitin-like proteases and to profile active deubiquitinating enzymes in normal, virus-infected, and malignant cells (Borodovsky et al., Chem Biol 2002, 9, 1149-1159, Hemelaar et al., Mol Cell Biol 2004, 24, 84-95, Ovaa et al., Proc Natl Acad Sci USA 2004 101, 2253-2258).
The HA-Ub-VS probe (Hemagglutin tag-Ubiquitin-Vinyl Sulfone) was used in this study to directly visualize the activity of all deubiquitinating enzymes from cell lysates. […]
Inducible USP7 shRNA HCT116 cells (previously treated with or without Doxycycline (2 μg/ml) for 4 days) as well as HEK293 cells were harvested and lysed on ice with a non denaturating buffer containing Tris pH7.4, 50 mM; NaCl, 150 mM; MgCl2, 5 mM; EDTA, 0.5 mM; DTT, 2 mM; ATP, 2 mM; NP40, 0.5% and glycerol, 10%. […] Proteins were then quantified by Bradford method (Bio-Rad Protein Assay). […] Signals were detected by enhanced chemiluminescence (ECL; Amersham) according to the reagent manufacturer's instructions.

[2] = system: HCT116 colon cancer cells; assay: HCT116 cell viability and proliferation assay (MTS); format: cell-based; settings: Homo sapiens, HCT-116, 72 h, HCT116, 72 hours, read-out: Cell viability (MTS): HCT116 GI50 Day3
Method: HCT116 colon cancer cells were obtained from ATCC (American Type Culture Collection), and maintained in Mc Coy's 5A medium containing 10% FBS, 3 mM glutamine and 1% penicillin/streptomycin. Cells were incubated at 37° C. in a humidified atmosphere containing 5% CO2.
Cell viability was assayed using the MTS technique in 96-well culture plates (CellTiter 96® Aqueous Non-Radioactive Cell Proliferation Assay, Promega) according to the manufacturer's instructions. MTS (3-(4,5-dimethyl-thiazol-2-yl)-5-(3-carboxy-methoxyphenyl)-2-(4-sulfophenyl)-2H-tetra-zolium) is a MTT-derived tetrazolium that is reduced in metabolically active cells into a soluble, cell-permeant formazan. The amount of formazan, detected by its absorbance at 492 nm is proportional to the number of living, metabolically active cells.
10^3 HCT116 cells were seeded per well. 24 hours later, the medium was changed and the cells treated in triplicate with the concentrations of each compound from 100 μM to 50 nM. The compounds were diluted in 100% DMSO, whose final concentration on cells was kept at 0.5%.
Cells were incubated with the compounds for 72 hours, and their viability then assayed by the addition of MTS for 2 hours. Absorbance at 492 nm was measured directly from the 96-well culture plates. Gl50 (Growth Inhibition 50) concentrations for each compound were calculated using a sigmoidal variable slope fit (Prism 4.0, Graphpad Softwares). Values represent mean of three independent experiments.

[3] = molecular target: T1, USP7 over a panel of active DUBs; assay: HA-Ub-VS labeling of active DUBs in HCT116 cell lysates; format: biochemical; set-up: endogenous in cells; host or cells: HCT116 (inducible USP7 shRNA line), non-denaturing lysate; settings: for HA-Ub-VS-USP7 protein level: different doses (100 μM to 3 μM), 2 hours
Description: as §1
The HA-Ub-VS probe (Hemagglutin tag-Ubiquitin-Vinyl Sulfone) was used in this study to directly visualize the activity of all deubiquitinating enzymes from cell lysates. This tool was used to evaluate the activity/specificity of our small molecule compounds on USP7 relative to all deubiquitinating enzymes active in physiological conditions.
Inducible USP7 shRNA HCT116 cells (previously treated with or without Doxycycline (2 μg/ml) for 4 days) as well as HEK293 cells were harvested and lysed on ice with a non denaturating buffer containing Tris pH7.4, 50 mM; NaCl, 150 mM; MgCl2, 5 mM; EDTA, 0.5 mM; DTT, 2 mM; ATP, 2 mM; NP40, 0.5% and glycerol, 10%. Samples were incubated at 4° C. for 1 hour and clarified. Proteins were then quantified by Bradford method (Bio-Rad Protein Assay). 25 μg of proteins from native cell lysates were treated with compounds of examples 14 and 5 (from 100 μM to 3 μM) or with NEM (N-Ethylmaleimide, a thiol-reactive compound, 5 mM) for 2 hours at room temperature. The ubiquitin labeling reaction was initiated by the addition of HA-Ub-VS (8 μg/ml) in labeling buffer (Tris pH7.6, 50 mM; MgCl2, 5 mM; EDTA, 0.5 mM; DTT, 2 mM; ATP, 2 mM; sucrose, 250 mM) and incubated at room temperature for 30 min. Samples were next heated at 100° C. for 10 minutes and briefly sonicated. They were resolved by SDS-polyacrylamide gel electrophoresis (SDS-PAGE), transferred to a nitrocellulose membrane and probed with antibodies against USP7 (Bethyl Lab, A300-034A), HA (BabCO, MMS-101P), and actin (Sigma, A2066). Horseradish peroxidase (HRP)-conjugated anti-mouse (Jackson Laboratories, 115-035-003) or HRP-conjugated anti-rabbit (Cell Signaling, 7074) antibodies were used as secondary antibodies. Signals were detected by enhanced chemiluminescence (ECL; Amersham) according to the reagent manufacturer's instructions.

T1 sequence (Q93009 whole entry): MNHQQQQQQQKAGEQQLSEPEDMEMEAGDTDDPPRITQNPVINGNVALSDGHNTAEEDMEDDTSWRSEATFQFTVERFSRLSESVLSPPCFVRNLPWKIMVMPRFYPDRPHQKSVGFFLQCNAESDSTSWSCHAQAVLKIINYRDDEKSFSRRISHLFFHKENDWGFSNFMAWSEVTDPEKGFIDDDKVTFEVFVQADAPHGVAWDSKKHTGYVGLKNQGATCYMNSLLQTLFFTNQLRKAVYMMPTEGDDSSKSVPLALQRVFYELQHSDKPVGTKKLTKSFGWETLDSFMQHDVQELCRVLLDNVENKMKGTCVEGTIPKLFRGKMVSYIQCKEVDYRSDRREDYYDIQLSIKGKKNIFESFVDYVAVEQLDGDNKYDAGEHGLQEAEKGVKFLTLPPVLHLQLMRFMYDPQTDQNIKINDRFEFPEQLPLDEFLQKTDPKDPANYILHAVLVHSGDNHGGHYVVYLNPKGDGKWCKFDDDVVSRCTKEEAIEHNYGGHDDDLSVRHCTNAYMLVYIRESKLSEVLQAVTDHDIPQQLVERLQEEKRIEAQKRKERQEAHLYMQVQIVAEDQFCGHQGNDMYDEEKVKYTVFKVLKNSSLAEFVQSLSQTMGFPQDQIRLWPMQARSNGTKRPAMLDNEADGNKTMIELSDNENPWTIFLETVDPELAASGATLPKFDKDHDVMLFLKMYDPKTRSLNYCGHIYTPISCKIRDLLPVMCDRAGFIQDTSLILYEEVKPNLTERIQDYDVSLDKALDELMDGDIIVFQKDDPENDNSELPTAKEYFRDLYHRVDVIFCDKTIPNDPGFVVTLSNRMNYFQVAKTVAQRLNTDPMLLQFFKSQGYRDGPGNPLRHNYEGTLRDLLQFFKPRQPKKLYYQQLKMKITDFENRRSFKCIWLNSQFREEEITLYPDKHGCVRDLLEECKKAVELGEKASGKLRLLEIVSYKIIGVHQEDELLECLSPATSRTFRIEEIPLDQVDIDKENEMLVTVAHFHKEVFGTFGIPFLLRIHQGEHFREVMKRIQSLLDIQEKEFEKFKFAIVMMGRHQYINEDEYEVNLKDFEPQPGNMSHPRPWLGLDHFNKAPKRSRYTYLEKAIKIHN

| HA-Ub-VS-USP7 protein level [1] | GI50 [2] | HA-Ub-VS-USP7 protein level [3] | HA-Ub-VS labeled DUB bands after treatment ([3]; fixed dose 50 μM, anti-HA immunoblot) | SMILES | HA-Ub-VS labeling of the active form of DUBs ([3]; NEM 5 mM) |
| --- | --- | --- | --- | --- | --- |
| also confirmed | 4.1 µM | specific and dose-dependent decrease | only one band was decreased | CN(CCCNC(=O)c1ccc2c(Cl)c3c(nc2c1)CCCC3)Cc1ccccc1 [Example 14, 9-Chloro-5,6,7,8-tetrahydro-acridine-3-carboxylic acid [3-(benzyl-methyl-amino)-propyl]-amide] |  |
|  |  |  |  | CCN1C(=O)C=CC1=O [NEM, N-Ethylmaleimide, reference compound] | inhibited |
| also confirmed | 4 µM | specific and dose-dependent decrease |  | CCN(CCCNC(=O)c1ccc2c(Cl)c3c(nc2c1)CCCC3)Cc1ccccc1 [Example 5, 9-Chloro-5,6,7,8-tetrahydro-acridine-3-carboxylic acid [3-(benzyl-ethyl-amino)-propyl]-amide] |  |
